molecular target: DYRK1A (Homo sapiens, UniProt Q13627); assay: Affinity testing of compounds with DYRK1A (KD); type: binding; details: DYRK1A affinity key classes

Row | SMILES | Kd [nM]
1 | CC(=O)N1C[C@@H]2[C@H](C1)[C@H]2n1c(C)nc2ccc(-c3ccnc(N)c3)nc21 [Compound 47, 1-((1R,5S,6s)-6-(5-(2-aminopyridin-4-yl)-2-methyl-3H-imidazo[4,5-b]pyridin-3-yl)-3-azabicyclo[3.1.0]hexan-3-yl)ethan-1-one] | 0.5 to 100
2 | c1cc(-c2ccc3ncn(-c4ccc5c(c4)OCO5)c3n2)ccn1 [Compound 4, 3-(benzo[d][1,3]dioxol-5-yl)-5-(pyridin-4-yl)-3H-imidazo[4,5-b]pyridine] | 0.5 to 100
3 | Cc1nc2ccc(-c3ccncc3)nc2n1-c1ccc2c(c1)OCO2 [Compound 29, 3-(benzo[d][1,3]dioxol-5-yl)-2-methyl-5-(pyridin-4-yl)-3H-imidazo[4,5-b]pyridine] | 0.5 to 100
4 | Cc1nc2ccc(-c3cn[nH]c3)c(F)c2n1-c1ccc2c(c1)OCO2 [Compound 20, 1-(benzo[d][1,3]dioxol-5-yl)-7-fluoro-2-methyl-6-(1H-pyrazol-4-yl)-1H-benzo[d]imidazole] | 0.5 to 100
5 | Cc1cc(-c2ccc3ncc(-c4ccc(CN5C[C@@H]6C[C@@H]5CO6)cc4)n3n2)ccn1 [Compound 91, (1S,4R)-5-(4-(6-(2-methylpyridin-4-yl)imidazo[1,2-b]pyridazin-3-yl)benzyl)-2-oxa-5-azabicyclo[2.2.1]heptane] | 0.5 to 100
6 | c1cc(-c2ccc3ncc(-c4ccc(N5CCCCC5)nc4)n3n2)ccn1 [Compound 74, 3-(6-(piperidin-1-yl)pyridin-3-yl)-6-(pyridin-4-yl)imidazo[1,2-b]pyridazine] | 101 to 500
7 | Cc1nc2ccc(-c3ccnc(C(F)F)c3)nc2n1-c1ccc2c(c1)OCO2 [Compound 61, 3-(benzo[d][1,3]dioxol-5-yl)-5-(2-(difluoromethyl)pyridin-4-yl)-2-methyl-3H-imidazo[4,5-b]pyridine] | 501 to 10000
8 | COc1cnc(-c2ccnc(N)c2)nc1 [Compound 69, 4-(5-methoxypyrimidin-2-yl)pyridin-2-amine] | 101 to 500
9 | c1cc(-c2ccc3nnn(-c4ccc5[nH]cnc5c4)c3n2)ccn1 [Compound 59, 3-(1H-benzo[d]imidazol-5-yl)-5-(pyridin-4-yl)-3H-[1,2,3]triazolo[4,5-b]pyridine] | 0.5 to 100
10 | c1cc(-c2cn3c(-c4ccc5c(c4)OCO5)cnc3cn2)ccn1 [Compound 67, 3-(benzo[d][1,3]dioxol-5-yl)-6-(pyridin-4-yl)imidazo[1,2-a]pyrazine] | 0.5 to 100
11 | COC(=O)c1ccc(-n2cnc3ccc(-c4ccncc4)c(F)c32)cc1 [Compound 5, methyl 4-(7-fluoro-6-(pyridin-4-yl)-1H-benzo[d]imidazol-1-yl)benzoate] | 0.5 to 100
12 | Cc1nc2cc(-n3c(C)nc4ccc(-c5ccncc5)nc43)ccc2o1 [Compound 35, 2-methyl-5-(2-methyl-5-(pyridin-4-yl)-3H-imidazo[4,5-b]pyridin-3-yl)benzo[d]oxazole] | 101 to 500
13 | COc1cnc(-c2ccncc2)nc1 [Compound 70, 5-methoxy-2-(pyridin-4-yl)pyrimidine] | 501 to 10000

Other lines, results leading:

Row | Kd [nM] | SMILES
14 | 0.5 to 100 | Cc1nc2ccc(-c3ccncc3)nc2n1-c1ccc(CO)cc1 [Compound 115, (4-(2-methyl-5-(pyridin-4-yl)-3H-imidazo[4,5-b]pyridin-3-yl)phenyl)methanol]
15 | 0.5 to 100 | Cc1nc2ccc(-c3ccncc3)nc2n1-c1ccc(CN2CCOC(C)(C)C2)cc1 [Compound 120, 2,2-dimethyl-4-(4-(2-methyl-5-(pyridin-4-yl)-3H-imidazo[4,5-b]pyridin-3-yl)benzyl)morpholine]
16 | 0.5 to 100 | Cc1nc2ccc(-c3ccncc3)nc2n1-c1cccc(CN2CCOCC2)c1 [Compound 140, 4-(3-(2-methyl-5-(pyridin-4-yl)-3H-imidazo[4,5-b]pyridin-3-yl)benzyl)morpholine]
17 | 101 to 500 | OC1CCCN(Cc2ccc(-c3cnc4ccc(-c5ccncc5)nn34)cc2)C1 (stereo not drawn) [Compound 101, 1-(4-(6-(pyridin-4-yl)imidazo[1,2-b]pyridazin-3-yl)benzyl)piperidin-3-ol]
18 | 0.5 to 100 | Cc1nc2ccc(-c3ccnc(N)c3)nc2n1-c1cnc2[nH]ccc2c1 [Compound 152, 4-(2-methyl-3-(1H-pyrrolo[2,3-b]pyridin-5-yl)-3H-imidazo[4,5-b]pyridin-5-yl)pyridin-2-amine]
19 | 101 to 500 | Cc1nc2ccc(-c3ccncc3)nc2n1-c1ccc(CN2[C@@H]3COC[C@H]2CC(=O)C3)cc1 [Compound 123, (1R,5S)-9-(4-(2-methyl-5-(pyridin-4-yl)-3H-imidazo[4,5-b]pyridin-3-yl)benzyl)-3-oxa-9-azabicyclo[3.3.1]nonan-7-one]
20 | 0.5 to 100 | Cc1nc2ccc(-c3ccnc(N)c3)nc2n1-c1ccc2[nH]ccc2c1 [Compound 150, 4-(3-(1H-indol-5-yl)-2-methyl-3H-imidazo[4,5-b]pyridin-5-yl)pyridin-2-amine]
21 | 101 to 500 | COc1cc(-n2c(C)nc3ccc(-c4ccncc4)nc32)ccc1CN1CCOCC1 [Compound 142, 4-(2-methoxy-4-(2-methyl-5-(pyridin-4-yl)-3H-imidazo[4,5-b]pyridin-3-yl)benzyl)morpholine]
22 | 101 to 500 | Cc1nc2ccc(-c3ccncc3)nc2n1-c1ccc(CN2CCOCC2)nc1 [Compound 133, 4-((5-(2-methyl-5-(pyridin-4-yl)-3H-imidazo[4,5-b]pyridin-3-yl)pyridin-2-yl)methyl)morpholine]
23 | 0.5 to 100 | Cc1nc2ccc(-c3ccncc3)nc2n1-c1ccc(CN2C[C@@H](C)N(C)[C@@H](C)C2)cc1 [Compound 119, 2-methyl-5-(pyridin-4-yl)-3-(4-(((3R,5S)-3,4,5-trimethylpiperazin-1-yl)methyl)phenyl)-3H-imidazo[4,5-b]pyridine]
24 | 101 to 500 | CN1CCN(Cc2ccc(-c3cnc4ccc(-c5ccncc5)nn34)cc2)CC1 [Compound 100, 3-(4-((4-methylpiperazin-1-yl)methyl)phenyl)-6-(pyridin-4-yl)imidazo[1,2-b]pyridazine]
25 | 0.5 to 100 | Cc1c2cc(-n3c(C)nc4ccc(-c5ccncc5)nc43)ccc2nn1C [Compound 139, 3-(2,3-dimethyl-2H-indazol-5-yl)-2-methyl-5-(pyridin-4-yl)-3H-imidazo[4,5-b]pyridine]
26 | 101 to 500 | FC1(F)CN(Cc2ccc(-c3cnc4ccc(-c5ccncc5)nn34)cc2)C1 [Compound 102, 3-(4-((3,3-difluoroazetidin-1-yl)methyl)phenyl)-6-(pyridin-4-yl)imidazo[1,2-b]pyridazine]
27 | 0.5 to 100 | Cc1nc2ccc(-c3ccncc3)nc2n1-c1ccc(CN2C[C@H](C)O[C@@H](C)C2)cc1 [Compound 118, (2S,6S)-2,6-dimethyl-4-(4-(2-methyl-5-(pyridin-4-yl)-3H-imidazo[4,5-b]pyridin-3-yl)benzyl)morpholine]
28 | 501 to 10000 | Nc1cc(-c2ccn3ncc(-c4ccc(CN5CCOCC5)cc4)c3n2)ccn1 [Compound 112, 4-(3-(4-(morpholinomethyl)phenyl)pyrazolo[1,5-a]pyrimidin-5-yl)pyridin-2-amine]
29 | 0.5 to 100 | Cc1nc2ccc(-c3ccncc3)nc2n1-c1ccc(CN2CCN(C)CC2)cc1 [Compound 125, 2-methyl-3-(4-((4-methylpiperazin-1-yl)methyl)phenyl)-5-(pyridin-4-yl)-3H-imidazo[4,5-b]pyridine]
30 | 0.5 to 100 | Cc1nc2ccc(-c3ccnc(N)c3)nc2n1-c1ccc(N2C[C@@H](C)O[C@@H](C)C2)c(F)c1 [Compound 181, 4-(3-(4-((2S,6R)-2,6-dimethylmorpholino)-3-fluorophenyl)-2-methyl-3H-imidazo[4,5-b]pyridin-5-yl)pyridin-2-amine]

From US12054483B2, “Small molecule inhibitors of DYRK/CLK and uses thereof” (Arizona Board of Regents on Behalf of the University of …, priority 2018, dated 2024)
